Structures can show the parent of a compound that is named as a salt.
target: T1, human VR1 (Homo sapiens, UniProt Q8NER1); assay: Inhibition of Ca2+ entry in cells caused by proton, in rat glioma (C6BU1) cells stably expressing human VR1 (Fura 2 fluorescence); assay type: cell-based; conditions: inhibition of proton-induced Ca2+ entry
T1 construct: expressed in transfected cells
Description: The assay for evaluation of VR1 inhibition by the inventive compounds will be described below. The assay was intended to evaluate in vitro inhibition of Ca^2+ entry in cells caused by proton, one of the VR1 agonists.
Rat glioma (C6BU1) cells stably expressing human VR1 were suspended in 20 mM MES buffer (at pH 6.8, contg. 20 mM 2-morpholinoethanesulfonate (referred to as MES hereinafter), 115 mM NaCl, 5 mM KCl, 1 mM MgCl2 and 14 mM D-glucose) to make a cell density of 1×10^6 cells/mL. A fluorescent dye, Fura 2-AMsolution (DojindoCorporate, Cat. No. 343-05401) was added to the suspension to make a 5 μM concentration thereof. Further, Pluronic F-127 (Wako Pure Chemical Industries, Ltd., Cat. No. P6866) was added to make a 0.1% content thereof. Then, the suspension was incubated at 37° C. for 30 min. The cells were harvested and washed three times with 20 mM MES buffer. The cells were suspended again to make a cell density of 5×10^5 cells/mL. A 500-μL portion of the suspension was taken with a cuvette (MC MEDICAL, INC., Cat. No. SSR3121), to which 10 μL of 20 mM MES buffer containing 250 mM CaCl2 was added to incorporate Ca^2+ into the cells. At the same time, 5 μL of a test compound solution (in a range of 100 μM to 10 nM in DMSO) was also added to provide a final concentration thereof in a range of 1 μM to 0.1 nM. Alternatively, 5 μL of DMSO was added as control to provide a final concentration of 1% DMSO. The suspension was set in an intracellular ionometer (CAF-110; JASCO) 10 min after those additions. The cells were stimulated with protons by addition of 60 μL of 20 mM MES buffer at pH 1.1 to the suspension to set its pH at 5.5. The activity of the test compound was determined as a difference between the minimum of fluorescence intensity before agonist stimulation and its maximum after the stimulation. The value of IC50 was derived from percentage of inhibition by the test compound compared with the control.
In the tables, the symbol “++” indicates an IC50 value less than 100 nM and the symbol “+” indicates an IC50 value of 100 nM to 1,000 nM inclusive.

T1 sequence (Q8NER1 whole entry): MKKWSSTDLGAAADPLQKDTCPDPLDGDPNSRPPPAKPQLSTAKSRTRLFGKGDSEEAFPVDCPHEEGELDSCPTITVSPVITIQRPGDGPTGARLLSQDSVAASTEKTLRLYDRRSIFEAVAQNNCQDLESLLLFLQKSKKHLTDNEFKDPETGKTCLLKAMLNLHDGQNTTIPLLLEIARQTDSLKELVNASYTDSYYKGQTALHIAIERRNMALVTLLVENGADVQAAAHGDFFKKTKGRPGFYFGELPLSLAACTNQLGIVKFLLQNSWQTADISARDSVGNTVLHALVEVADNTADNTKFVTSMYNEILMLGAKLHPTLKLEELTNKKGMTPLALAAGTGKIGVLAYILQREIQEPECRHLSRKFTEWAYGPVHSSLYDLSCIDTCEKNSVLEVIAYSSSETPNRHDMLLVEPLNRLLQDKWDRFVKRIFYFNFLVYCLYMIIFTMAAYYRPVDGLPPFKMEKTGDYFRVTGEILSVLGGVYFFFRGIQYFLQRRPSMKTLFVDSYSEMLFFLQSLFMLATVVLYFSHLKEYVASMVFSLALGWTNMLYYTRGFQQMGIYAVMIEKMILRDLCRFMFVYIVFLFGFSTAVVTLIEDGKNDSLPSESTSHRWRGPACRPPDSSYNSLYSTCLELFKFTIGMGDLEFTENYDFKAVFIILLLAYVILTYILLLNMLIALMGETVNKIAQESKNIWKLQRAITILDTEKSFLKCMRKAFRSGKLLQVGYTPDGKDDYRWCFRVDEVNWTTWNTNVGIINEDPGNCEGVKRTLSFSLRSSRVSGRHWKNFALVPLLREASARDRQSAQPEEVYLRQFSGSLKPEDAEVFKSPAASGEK

IC50, < 100 nM:
CC(C)c1ccc(NC(=O)c2cccc3c2OC[C@H](CO)N3c2ncccc2Cl)cc1 [Example 4-17]
O=C(Nc1ccc(C(F)(F)F)cc1)c1cccc2c1OCCN2c1ccc(O)cn1 [Example 1-146]
O=C(Nc1ccc(C(O)(C(F)(F)F)C(F)(F)F)cc1)c1cccc2c1OCCN2c1ncc(CO)cc1Cl [Example 2-37]
O=C(Nc1ccc(Cl)c(Cl)c1)c1cccc2c1OC[C@H](CO)N2c1ncccc1Cl [Example 4-34]
CC(=O)c1ccc(NC(=O)c2cccc3c2OCCN3c2ccc(C)cn2)cc1 [Example 1-078]
O=C(Nc1ccc(C(F)(F)F)cc1)c1cccc2c1OCCN2c1ncccc1Cl [Example 1-100]
CC(C)Oc1ccc(NC(=O)c2cccc3c2OCCN3c2ncc(CO)cc2Cl)cc1C(F)(F)F [Example 2-19]
O=C(Nc1ccc(Br)c(F)c1)c1cccc2c1OCCN2c1ncc(CO)cc1Cl [Example 2-41]
Cc1ccc(N2CCOc3c(C(=O)Nc4ccc(C)c(OCCO)c4)cccc32)nc1 [Example 1-173]
O=C(Nc1ccc(Br)c(C(F)(F)F)c1)c1cccc2c1OCCN2c1ncc(CO)cc1Cl [Example 2-23]
O=C(Nc1ccc(C(F)(F)F)cc1)c1cccc2c1OC[C@H](CO)N2c1ccc(Cl)cc1 [Example 7-10]
O=C(Nc1ccc(N2CCOCC2)c(C(F)(F)F)c1)c1cccc2c1OC[C@H](CO)N2c1ncccc1Cl [Example 4-39]
O=C(Nc1ccc(F)c(C(F)(F)F)c1)c1cccc2c1OC[C@H](CO)N2c1ncccc1Cl [Example 4-18]
Cc1ccc(N2CCOc3c(C(=O)Nc4ccc(C(C)(C)C)cc4)cccc32)nc1 [Example 1-060]
COC1CCN(c2ccc(NC(=O)c3cccc4c3OCCN4c3ccc(C)cn3)cc2F)C1 (stereo not drawn) [Example 1-072]
COCc1cnc(N2CCOc3c(C(=O)Nc4ccc(C(F)(F)F)cc4)cccc32)c(Cl)c1 [Example 2-09, 4-(3-chloro-5-methoxymethylpyridin-2-yl)-N-(4-trifluoromethylpheny)-3,4-dihydro-2H-benzo[1,4]oxazine-8-carboxamide]
O=C(Nc1ccc(C(F)(F)F)cc1)c1cccc2c1OCCN2c1ccc(CO)cn1 [Example 2-07, N-(4-trifluoromethylphenyl)-4-(5-hydroxymethylpyridin-2-yl)-3,4-dihydro-2H-benzo[1,4]oxazine-8-carboxamide hydrochloride]
COc1cnc(N2c3cccc(C(=O)Nc4ccc(OC(F)(F)F)cc4)c3OC[C@@H]2CO)c(Cl)c1 [Example 4-26]
Cc1ccc(N2CCOc3c(C(=O)NCCc4ccccc4)cccc32)nc1 [Example 1-124]
O=C(Nc1ccc(Cl)cc1)c1cccc2c1OCCN2c1ncccc1Cl [Example 1-006]
Cc1cnc(N2c3cccc(C(=O)Nc4ccc(C(F)(F)F)cc4)c3OC[C@@H]2CO)s1 [Example 6-2, (S)-3-hydroxymethyl-4-(5-methylthiazol-2-yl)-N-(4-trifluoromethylphenyl)-3,4-dihydro-2H-benzo[1,4]oxazine-8-carboxamide]
CN(C)c1ccc(NC(=O)c2cccc3c2OC[C@H](CO)N3c2ncccc2Cl)cc1C(F)(F)F [Example 4-20]
COc1ccc(N2c3cccc(C(=O)Nc4ccc(C(F)(F)F)cc4)c3OC[C@@H]2CO)cc1 [Example 7-09]
Cc1ccc(N2c3cccc(C(=O)Nc4ccc(Cl)c(Cl)c4)c3OC[C@@H]2CO)nc1 [Example 4-32]
CC(C)Oc1cccc(NC(=O)c2cccc3c2OCCN3c2ncccc2Cl)c1 [Example 1-044]
O=C(Nc1ccc(C(F)(F)F)cc1)c1cccc2c1OCCN2c1ncc(CO)cc1Cl [Example 2-05, N-(4-trifluoromethylphenyl)-4-(3-chloro-5-hydroxymethylpyridin-2-yl)-3,4-dihydro-2H-benzo[1,4]oxazine-8-carboxamide]
Cc1ccc(N2c3cccc(C(=O)Nc4ccc(C(F)(F)F)nc4)c3OC[C@@H]2CO)nc1 [Example 4-27]
Cc1ccc(N2CCOc3c(C(=O)Nc4ccc(OCC(C)(C)O)cc4)cccc32)nc1 [Example 1-155]
O=C(Nc1ccc(Cl)c(C(F)(F)F)c1)c1cccc2c1OC[C@H](CO)N2c1ncccc1Cl [Example 4-35]
O=C(Nc1ccc(Cl)c(C(F)(F)F)c1)c1cccc2c1OCCN2c1ncccc1Cl [Example 1-025]
O=C(Nc1ccc(N2CCCCC2)c(F)c1)c1cccc2c1OCCN2c1ncc(CO)cc1Cl [Example 2-35]
Cc1cnc(N2c3cccc(C(=O)Nc4ccc(F)c(C(F)(F)F)c4)c3OC[C@@H]2CO)s1 [Example 6-8]
O=C(Nc1ccc(C(F)(F)F)cc1)c1cccc2c1OC[C@H](CO)N2c1ncccc1Cl [Example 4-04, (S)-4-(3-chloropyridin-2-yl)-3-hydroxylmethyl-N-(4-trifluoromethylphenyl)-3,4-dihydro-2H-benzo[1,4]oxazine-8-carboxamide]
CCOC1CCN(c2ccc(NC(=O)c3cccc4c3OCCN4c3ncccc3Cl)cc2F)CC1 [Example 1-102]
Cc1ccc(N2CCOc3c(C(=O)N[C@H]4CC[C@H](OCC(C)C)CC4)cccc32)nc1 [Example 1-187]
Cc1ccc(N2c3cccc(C(=O)Nc4ccc(N5CCOCC5)c(C(F)(F)F)c4)c3OC[C@@H]2CO)nc1 [Example 4-29]
O=C(Nc1nc2ccc(F)cc2s1)c1cccc2c1OCCN2c1ncc(CO)cc1Cl [Example 2-22]
COc1cnc(N2CCOc3c(C(=O)Nc4ccc(C(F)(F)F)cc4)cccc32)c(Cl)c1 [Example 1-145]
COC1CCCN(c2ccc(NC(=O)c3cccc4c3OCCN4c3ccc(C)cn3)cc2F)C1 (stereo not drawn) [Example 1-070]
CC(C)COc1cccc(NC(=O)c2cccc3c2OCCN3c2ncccc2Cl)c1 [Example 1-045]
Cc1ccc(N2CCOc3c(C(=O)Nc4ccc(N5CCC(OC(C)C)CC5)c(F)c4)cccc32)nc1 [Example 1-069]
CC(O)C1COc2c(C(=O)Nc3ccc(OC(F)(F)F)cc3)cccc2N1c1ncccc1Cl (stereo not drawn) [Example 4-56]

IC50, 100 to 1000 nM:
O=C(O)c1ccc(N2CCOc3c(C(=O)Nc4ccc(C(F)(F)F)cc4)cccc32)nc1 [Example 1-128]
O=C(Nc1ccc(C(F)(F)F)cc1)c1cccc2c1OC[C@H](C(=O)O)N2c1ncccc1Cl [Example 1-229]
O=C(Nc1ccc(OC(F)(F)F)cc1)c1cccc2c1OCCN2c1ncccc1OCc1cccnc1 [Example 1-217]
COC(=O)c1ccc(N2CCOc3c(C(=O)Nc4ccc(C(C)(C)C)cc4)cccc32)nc1 [Example 1-132]
CCC(C)(O)c1ccc(NC(=O)c2cccc3c2OCCN3c2ncccc2Cl)cc1 (stereo not drawn) [Example 1-041, 4-(3-chloropyridin-2-yl)-N-[4-(1-hydroxy-1-methyl)propyl]phenyl-3,4-dihydro-2H-benzo[1,4]oxazine-8-carboxamide]
O=C(Nc1ccc(OC(F)(F)F)cc1)c1cccc2c1OCCN2c1ncccc1O [Example 1-210]
